Measured values taken from patent US20040248963A1, “Prodrugs of excitatory amino acids” (priority 2001, published 2004).

Row | Structure (SMILES) | melting point
1 | CC(C)(C)C(=O)OCOC(=O)[C@H]1[C@@H]2CC[C@@](N)(C(=O)O)[C@@H]21.Cl | 258 °C (dec.)
2 | Cl.N[C@@]1(C(=O)O)CC[C@H]2[C@H](C(=O)OCOC(=O)c3ccccc3)[C@H]21 | 230 °C (dec.)
3 | CC(C)OC(=O)OCOC(=O)[C@H]1[C@@H]2CC[C@@](N)(C(=O)OCOC(=O)OC(C)C)[C@@H]21.Cl | 52 °C
4 | CC(C)C(=O)OCOC(=O)[C@H]1[C@@H]2CC[C@@](N)(C(=O)OCOC(=O)C(C)C)[C@@H]21.Cl | 224 to 226 °C
5 | CC(C)OC(=O)OCOC(=O)[C@]1(N)CC[C@H]2[C@H](C(=O)O)[C@H]21.Cl [Example 14, (1S,2S,5R,6S)-2-Amino-bicyclo[3.1.0]hexane-2,6-dicarboxylic acid 2-isopropyloxycarbonyloxymethyl ester hydrochloride] | 59 to 60 °C
6 | CC(C)(C)C(=O)OCOC(=O)[C@H]1[C@@H]2CC[C@@](N)(C(=O)O)[C@@H]21 [Example 21, (1S,2S,5R,6S)-2-Amino-bicyclo[3.1.0]hexane-2,6-dicarboxylic acid 6-tert-butylcarbonyloxymethyl ester] | 205 to 206 °C
7 | CC(C)OC(=O)OCOC(=O)[C@H]1[C@@H]2CC[C@@](N)(C(=O)O)[C@@H]21 [Example 23, (1S,2S,5R,6S)-2-Amino-bicyclo[3.1.0]hexane-2,6-dicarboxylic acid 6-isopropyloxycarbonyloxymethyl ester] | 196 to 197 °C
8 | CCCC(=O)OCOC(=O)[C@H]1[C@@H]2CC[C@@](N)(C(=O)O)[C@@H]21 [Example 24, (1S,2S,5R,6S)-2-amino-bicyclo[3.1.0]hexane-2,6-dicarboxylic acid 6-n-butyryloxymethyl ester] | 199 to 200 °C
9 | COC(=O)OCOC(=O)[C@H]1[C@@H]2CC[C@@](N)(C(=O)O)[C@@H]21 [Example 25, (1S,2S,5R,6S)-2-amino-bicyclo[3.1.0]hexane-2,6-dicarboxylic acid 6-methoxycarbonyloxymethyl ester] | 214 to 215 °C
10 | Cc1oc(=O)oc1COC(=O)[C@H]1[C@@H]2CC[C@@](N)(C(=O)O)[C@@H]21 [Example 26, (1S,2S,5R,6S)-2-amino-bicyclo[3.1.0]hexane-2,6-dicarboxylic acid 6-(5′-methyl-2′-oxo-[1′,3′]dioxolen-4′-yl)methyl ester] | 180 °C (dec.)

Results, then the compound that gave them:

Row | melting point | Structure (SMILES)
11 | 184 to 185 °C | Cl.N[C@@]1(C(=O)OCOC(=O)c2ccc3ccccc3c2)CC[C@H]2[C@H](C(=O)O)[C@H]21
12 | 125 to 127 °C | Cl.N[C@@]1(C(=O)OCOC(=O)c2ccc3ccccc3c2)CC[C@H]2[C@H](C(=O)OCOC(=O)c3ccc4ccccc4c3)[C@H]21
13 | 92 to 94 °C | Cl.N[C@@]1(C(=O)OCOC(=O)c2cccc3ccccc23)CC[C@H]2[C@H](C(=O)OCOC(=O)c3cccc4ccccc34)[C@H]21
14 | 212 to 213 °C | Cl.N[C@@]1(C(=O)OCOC(=O)c2cccc3ccccc23)CC[C@H]2[C@H](C(=O)O)[C@H]21 [Example 17, (1S,2S,5R,6S)-2-amino-bicyclo[3.1.0]hexane-2,6-dicarboxylic acid 2-(naphthalene-1′-carbonyloxymethyl) ester hydrochloride]
15 | 73 °C | Cl.N[C@@]1(C(=O)OCOC(=O)c2ccccc2)CC[C@H]2[C@H](C(=O)OCOC(=O)c3ccccc3)[C@H]21 [Example 43, (1S,2S,5R,6S)-2-Amino-bicyclo[3.1.0]hexane-2,6-dicarboxylic acid, 2,6-dibenzoyloxymethyl ester hydrochloride]
